Measurements published in patent publication US4918070A, “Cephalosporin derivatives and antibacterial agents” (Banyu Pharmaceutical Co., Ltd., priority 1987, dated 1990).
≈ marks a conversion by molar mass, not a printed value. Read-outs that look alike come from different tables or passages of the source.

Key:
Format in all cases: cell-based
S. aureus 109P NIHJ-JCl = assay: in vitro antibacterial activity, agar plate dilution method (MIC), second part of Table 1; conditions: Staphylococcus aureus, 109PNIHJJCL, read-out: Minimum Inhibitory Concentration (MIC)
Experimental: (§1) One platinum loopfull of each test microorganism incubated overnight in Mueller Hinton broth, was inoculated to Mueller Hinton agar (inoculum size: 10^6 CFU/ml). Such culture media containing various antibiotics in various concentrations were prepared. After incubation at 37° C. for 16 hours, the minimum inhibitory concentrations (MIC: μg/ml) were measured.

S. marcescens IAM 1184 = assay: in vitro antibacterial activity, agar plate dilution method (MIC); conditions: for MIC: Serratia marcescens, read-out: Minimum Inhibitory Concentration (MIC)
Experimental: as §1

K. pneumoniae PCI-602 = assay: as above; conditions: for MIC: Klebsiella pneumoniae, read-out: Minimum Inhibitory Concentration (MIC)
Experimental: as §1

E. coli NIHJ JC2 = assay: as above; conditions: for MIC: Escherichia coli, read-out: Minimum Inhibitory Concentration (MIC)
Experimental: as §1

P. vulgaris HX-19 = assay: as above; conditions: for MIC: Proteus vulgaris, read-out: Minimum Inhibitory Concentration (MIC)
Experimental: as §1

E. cloacae 963 = assay: as above; conditions: for MIC: read-out: Minimum Inhibitory Concentration (MIC)
Experimental: as §1

S. aureus 209P NIHJ-JCl = assay: as above; conditions: for MIC: Staphylococcus aureus, read-out: Minimum Inhibitory Concentration (MIC)
Experimental: as §1

[1] = S. aureus 109P NIHJ-JCl, 10^6 CFU/ml, MH agar, 37° C., 16 hours
[2] = IAM1184, S. marcescens IAM 1184, 10^6 CFU/ml, MH agar, 37° C., 16 hours
[3] = PCI602, K. pneumoniae PCI-602, 10^6 CFU/ml, MH agar, 37° C., 16 hours
[4] = NIHJJC2, E. coli NIHJ JC2, 10^6 CFU/ml, MH agar, 37° C., 16 hours
[5] = HX19, P. vulgaris HX-19, 10^6 CFU/ml, MH agar, 37° C., 16 hours
[6] = Enterobacter cloacae, E. cloacae 963, 10^6 CFU/ml, MH agar, 37° C., 16 hours
[7] = Enterobacter cloacae, 963, 16 h
[8] = S. aureus 209P NIHJ-JCl, 10^6 CFU/ml, MH agar, 37° C., 16 hours

| MIC (S. marcescens IAM 1184; [2]) | MIC (K. pneumoniae PCI-602; [3]) | MIC (E. coli NIHJ JC2; [4]) | MIC (P. vulgaris HX-19; [5]) | MIC (E. cloacae 963; [6]) | Structure (SMILES) | MIC (S. marcescens IAM 1184; IAM1184, 16 h) | MIC (K. pneumoniae PCI-602; PCI602, 16 h) | MIC (E. coli NIHJ JC2; NIHJJC2, 16 h) | MIC (S. aureus 209P NIHJ-JCl; 209P, 16 h) | further results |
| --- | --- | --- | --- | --- | --- | --- | --- | --- | --- | --- |
| 0.2 µg/mL (≈ 0.396 µM) | 0.05 µg/mL (≈ 0.0991 µM) | 0.39 µg/mL (≈ 0.773 µM) | 0.2 µg/mL (≈ 0.396 µM) | 0.2 µg/mL (≈ 0.396 µM) | CO/N=C(\C(=O)N[C@@H]1C(=O)N2C(C(=O)[O-])=C(OCc3cccc[n+]3C)CS[C@H]12)c1csc(N)n1 [Example 44, 7β-[2-(2-aminothiazol-4-yl)-(Z)-2-methoxyiminoacetamido]-3-(1-methyl-2-pyridiniomethoxy)-3-cephem-4-carboxylate] | – | – | – | – | MIC (S. aureus 109P NIHJ-JCl; [1]): 0.2 µg/mL (≈ 0.396 µM) |
| 0.1 µg/mL | 0.025 µg/mL | 0.039 µg/mL | 0.39 µg/mL | 0.039 µg/mL | C[n+]1ccc(COC2=C(C(=O)[O-])N3C(=O)[C@@H](NC(=O)/C(=N\OC(C(=O)O)c4ccc(O)c(O)c4)c4csc(N)n4)[C@H]3SC2)cc1 (single isomer, unassigned) [Example 38, Sodium 7β-[2-(2-aminothiazol-4-yl)-(Z)-2-(α-carboxylato-3,4-dihydroxybenzyloxyimino)acetamido]-3-(1-methyl-4-pyridiniomethoxy)-3-cephem-4-carboxylate (diastereisomer A)] | – | – | – | – | MIC (S. aureus 109P NIHJ-JCl; [1]): 0.039 µg/mL |
| – | – | – | – | – | CO/N=C(\C(=O)N[C@@H]1C(=O)N2C(C(=O)[O-])=C(OCc3nc(C)cs3)CS[C@H]12)c1csc(N)n1.[Na+] [Example 16, Sodium 7β-[2-(2-aminothiazol-4-yl)-(Z)-2-methoxyiminoacetamido]-3-(4-methylthiazol-2-ylmethoxy)-3-cephem-4-carboxylate] | 0.2 µg/mL | < 0.006 µg/mL | 0.2 µg/mL | 3.12 µg/mL | MIC (P. vulgaris HX-19; HX19, 16 h): < 0.006 µg/mL; MIC (E. cloacae 963; [7]): 0.2 µg/mL |
| – | – | – | – | – | CO/N=C(\C(=O)N[C@@H]1C(=O)N2C(C(=O)[O-])=C(c3csnn3)CS[C@H]12)c1csc(N)n1.[Na+] [Example 18, Sodium 7δ-[2-(2-aminothiazol-4-yl)-(Z)-2-methoxyiminoacetamido]-3-(1,2,3-thiadiazol-4-yl)-3-cephem-4-carboxylate] | – | – | – | – | Minimum Inhibitory Concentration (MIC) (S. marcescens IAM 1184; S. marcescens IAM 1184, 10^6 CFU/ml, MH agar, 37° C., 16 hours): 0.390 µg/mL; Minimum Inhibitory Concentration (MIC) (K. pneumoniae PCI-602; K. pneumoniae PCI-602, 10^6 CFU/ml, MH agar, 37° C., 16 hours): 0.0125 µg/mL; Minimum Inhibitory Concentration (MIC) (E. coli NIHJ JC2; E. coli NIHJ JC2, 10^6 CFU/ml, MH agar, 37° C., 16 hours): 0.390 µg/mL; Minimum Inhibitory Concentration (MIC) (P. vulgaris HX-19; P. vulgaris HX-19, 10^6 CFU/ml, MH agar, 37° C., 16 hours): 0.100 µg/mL; Minimum Inhibitory Concentration (MIC) (S. aureus 209P NIHJ-JCl; [8]): 3.12 µg/mL; Minimum Inhibitory Concentration (MIC) (E. cloacae 963; E. cloacae 963, 10^6 CFU/ml, MH agar, 37° C., 16 hours): 0.390 µg/mL |
| 0.05 µg/mL (≈ 0.0991 µM) | 0.025 µg/mL (≈ 0.0495 µM) | 0.1 µg/mL (≈ 0.198 µM) | 0.2 µg/mL (≈ 0.396 µM) | 0.1 µg/mL (≈ 0.198 µM) | CO/N=C(\C(=O)N[C@@H]1C(=O)N2C(C(=O)[O-])=C(OCc3cc[n+](C)cc3)CS[C@H]12)c1csc(N)n1 [Example 32, 7β-[2-(2-aminothiazol-4-yl)-(Z)-2-methoxyiminoacetamido]-3-(1-methyl-4-pyridiniomethoxy)-3-cephem-4-carboxylate] | – | – | – | – | MIC (S. aureus 109P NIHJ-JCl; [1]): 0.039 µg/mL (≈ 0.0773 µM) |
| 0.1 µg/mL | 0.05 µg/mL | 0.39 µg/mL | 0.0125 µg/mL | 0.39 µg/mL | C[n+]1ccc(COC2=C(C(=O)[O-])N3C(=O)[C@@H](NC(=O)/C(=N\OCc4ccccc4CC(=O)O)c4csc(N)n4)[C@H]3SC2)cc1 [Example 40, Sodium 7β-[2-(2-aminothiazol-4-yl)-(Z)-2-(2-carboxylatomethylbenzyloxyimino)acetamido]-3-(1-methyl-4-pyridiniomethoxy)-3-cephem-4-carboxylate] | – | – | – | – | MIC (S. aureus 109P NIHJ-JCl; [1]): 1.56 µg/mL |
| – | – | – | – | – | CO/N=C(\C(=O)N[C@@H]1C(=O)N2C(C(=O)[O-])=C(OCc3ccncc3)CS[C@H]12)c1csc(N)n1.[Na+] [Example 1, Sodium 7β-[2-(2-aminothiazol-4-yl)-(Z)-2-methoxyiminoacetamido]-3-(4-pyridylmethoxy)-3-cephem-4-carboxylate] | 0.1 µg/mL | < 0.006 µg/mL | 0.2 µg/mL | 0.78 µg/mL | MIC (P. vulgaris HX-19; HX19, 16 h): 0.05 µg/mL; MIC (E. cloacae 963; [7]): 0.2 µg/mL |
| 0.1 µg/mL | < 0.006 µg/mL | 0.39 µg/mL | 0.05 µg/mL | 0.2 µg/mL | CO/N=C(\C(=O)N[C@@H]1C(=O)N2C(C(=O)O)=C(OCc3ccc(C(N)=O)cc3)CS[C@H]12)c1csc(N)n1 [Example 14, Sodium 7β-[2-(2-aminothiazol-4-yl)-(Z)-2-methoxyiminoacetamido]-3-(4-carbamoylbenzVloxy)-3-cephem-4-carboxylate] | – | – | – | – | MIC (S. aureus 209P NIHJ-JCl; [8]): 3.12 µg/mL |
| – | – | – | – | – | NC(=O)c1ccc(COC2=C(C(=O)[O-])N3C(=O)[C@@H](NC(=O)/C(=N\OCC(=O)[O-])c4csc(N)n4)[C@H]3SC2)cc1.[Na+].[Na+] [Example 22, Disodium 7β-[2-(2-aminothiazol-4-yl)-(Z)-2-carboxylatomethoxyiminoacetamido]-3-(4-carbamoylbenzyloxy)-3-cephem-4-carboxylate] | 0.0125 µg/mL | 0.025 µg/mL | 0.05 µg/mL | 50 µg/mL | MIC (P. vulgaris HX-19; HX19, 16 h): 0.025 µg/mL; MIC (E. cloacae 963; [7]): 0.1 µg/mL |
| – | – | – | – | – | CO/N=C(\C(=O)N[C@@H]1C(=O)N2C(C(=O)[O-])=C(OCc3ccc(C#N)cc3)CS[C@H]12)c1csc(N)n1.[Na+] [Example 12, Sodium 7β-[2-(2-aminothiazol-4-yl)-(Z)-2-methoxyiminoacetamido]-3-(4-cyanobenzyloxy)-3-cephem-4-carboxylate] | 0.39 µg/mL | 0.0125 µg/mL | 0.78 µg/mL | 0.78 µg/mL | MIC (P. vulgaris HX-19; HX19, 16 h): 0.025 µg/mL; MIC (E. cloacae 963; [7]): 0.78 µg/mL |

| Structure (SMILES) | MIC (S. marcescens IAM 1184; [2]) | MIC (K. pneumoniae PCI-602; [3]) | MIC (E. coli NIHJ JC2; [4]) | MIC (P. vulgaris HX-19; [5]) | MIC (E. cloacae 963; [6]) | MIC (S. marcescens IAM 1184; IAM1184, 16 h) | MIC (K. pneumoniae PCI-602; PCI602, 16 h) | MIC (E. coli NIHJ JC2; NIHJJC2, 16 h) | MIC (S. aureus 209P NIHJ-JCl; 209P, 16 h) | further results |
| --- | --- | --- | --- | --- | --- | --- | --- | --- | --- | --- |
| CC(C)(O/N=C(\C(=O)N[C@@H]1C(=O)N2C(C(=O)O)=C(OCc3ccncc3)CS[C@H]12)c1csc(N)n1)C(=O)O [Example 4, Disodium 7β-[2-(2-aminothiaxol-4-yl)-(Z)-2-(1-carboxylato-1-methylethoxyimino)acetamido]-3-(4-pyridylmethoxy)-3-cephem-4-carboxylate] | – | 0.05 µg/mL | 0.39 µg/mL | 0.0125 µg/mL | 0.039 µg/mL | 0.025 µg/mL | – | – | 12.5 µg/mL | – |
| C[n+]1ccc(COC2=C(C(=O)[O-])N3C(=O)[C@@H](NC(=O)/C(=N\OC(C)(C)C(=O)O)c4csc(N)n4)[C@H]3SC2)cc1 [Example 36, Sodium 7β-[2-(2-aminothiazol-4-yl)-(Z)-2-(1-carboxylato-1-methylethoxyimino)acetamido]-3-(1-methy-4-pyridiniomethoxy)-3-cephem-4-carboxylate] | 0.025 µg/mL | 0.0125 µg/mL | 0.05 µg/mL | 0.05 µg/mL | 0.05 µg/mL | – | – | – | – | MIC (S. aureus 109P NIHJ-JCl; 16 h): 6.25 µg/mL |
| C=C(O/N=C(\C(=O)N[C@@H]1C(=O)N2C(C(=O)[O-])=C(OCc3cc[n+](C)cc3)CS[C@H]12)c1csc(N)n1)C(=O)O [Example 37, Sodium 7β-[2-(2-aminothiazol-4-yl)-(Z)-2-(1-carboxylatovinyloxyimino)acetamido]-3-(1-methyl-4-pyridiniomethoxy)-3-cephem-4-carboxylate] | < 0.006 µg/mL | – | – | 0.025 µg/mL | 0.025 µg/mL | – | < 0.006 µg/mL | 0.025 µg/mL | – | MIC (S. aureus 109P NIHJ-JCl; 16 h): 1.56 µg/mL |
| CCO/N=C(\C(=O)N[C@@H]1C(=O)N2C(C(=O)[O-])=C(OCc3cc[n+](CC(=O)O)cc3)CS[C@H]12)c1csc(N)n1 [Example 51, Sodium 7β-[2-(2-aminothiazol-4-yl)-(Z)-2-ethoxyiminoacetamido]-3-(1-carboxylatomethyl-4-pyridiniomethoxy)-3-cephem-4-carboxylate] | 0.1 µg/mL | 0.025 µg/mL | 0.2 µg/mL | 0.05 µg/mL | 0.1 µg/mL | – | – | – | – | MIC (S. aureus 109P NIHJ-JCl; 16 h): 3.12 µg/mL |
